This note sets out measurements from patent publication US20230115176A1 (Ra Pharmaceuticals, Inc., priority 2019, published 2023).

In one test the target is T1, Human C5 (Homo sapiens, UniProt P01031).
T1 construct: purchased Complement Technology
Nature of the test: Surface plasmon resonance (SPR), immobilized human C5 (Example 9, Table 18). The conditions noted are these: immobilized human C5, equilibrium dissociation constant; read-out: SPR C5 EQ KD. It is filed as binding. From the text:
Morrison and Boyd in “Organic Chemistry”, 6th edition, Prentice Hall (1992)] and validated for proper structure by mass spectrometry.
On the technique in general: Surface plasmon resonance follows binding to a sensor surface in real time, without labels.

The target of a further test is purified human C5 (Homo sapiens, UniProt P01031). Kind of test: Red blood cell (RBC) hemolysis assay, optical, absorbance 412 nm (Example 10, Table 19). Format: cell-based. The conditions noted are these: antibody-sensitized sheep erythrocytes, […] human C5 depleted sera.
Setting [1] is: 0.5 nM purified human C5, absorbance 412 nm, read-out: RBC Hemolysis IC50.
The mark [2] stands for this setting: 0.5 nM human C5, read-out: IC50.

Read-outs that look alike come from different tables or passages of the source.

purified human C5, sequence (P01031 19-1676): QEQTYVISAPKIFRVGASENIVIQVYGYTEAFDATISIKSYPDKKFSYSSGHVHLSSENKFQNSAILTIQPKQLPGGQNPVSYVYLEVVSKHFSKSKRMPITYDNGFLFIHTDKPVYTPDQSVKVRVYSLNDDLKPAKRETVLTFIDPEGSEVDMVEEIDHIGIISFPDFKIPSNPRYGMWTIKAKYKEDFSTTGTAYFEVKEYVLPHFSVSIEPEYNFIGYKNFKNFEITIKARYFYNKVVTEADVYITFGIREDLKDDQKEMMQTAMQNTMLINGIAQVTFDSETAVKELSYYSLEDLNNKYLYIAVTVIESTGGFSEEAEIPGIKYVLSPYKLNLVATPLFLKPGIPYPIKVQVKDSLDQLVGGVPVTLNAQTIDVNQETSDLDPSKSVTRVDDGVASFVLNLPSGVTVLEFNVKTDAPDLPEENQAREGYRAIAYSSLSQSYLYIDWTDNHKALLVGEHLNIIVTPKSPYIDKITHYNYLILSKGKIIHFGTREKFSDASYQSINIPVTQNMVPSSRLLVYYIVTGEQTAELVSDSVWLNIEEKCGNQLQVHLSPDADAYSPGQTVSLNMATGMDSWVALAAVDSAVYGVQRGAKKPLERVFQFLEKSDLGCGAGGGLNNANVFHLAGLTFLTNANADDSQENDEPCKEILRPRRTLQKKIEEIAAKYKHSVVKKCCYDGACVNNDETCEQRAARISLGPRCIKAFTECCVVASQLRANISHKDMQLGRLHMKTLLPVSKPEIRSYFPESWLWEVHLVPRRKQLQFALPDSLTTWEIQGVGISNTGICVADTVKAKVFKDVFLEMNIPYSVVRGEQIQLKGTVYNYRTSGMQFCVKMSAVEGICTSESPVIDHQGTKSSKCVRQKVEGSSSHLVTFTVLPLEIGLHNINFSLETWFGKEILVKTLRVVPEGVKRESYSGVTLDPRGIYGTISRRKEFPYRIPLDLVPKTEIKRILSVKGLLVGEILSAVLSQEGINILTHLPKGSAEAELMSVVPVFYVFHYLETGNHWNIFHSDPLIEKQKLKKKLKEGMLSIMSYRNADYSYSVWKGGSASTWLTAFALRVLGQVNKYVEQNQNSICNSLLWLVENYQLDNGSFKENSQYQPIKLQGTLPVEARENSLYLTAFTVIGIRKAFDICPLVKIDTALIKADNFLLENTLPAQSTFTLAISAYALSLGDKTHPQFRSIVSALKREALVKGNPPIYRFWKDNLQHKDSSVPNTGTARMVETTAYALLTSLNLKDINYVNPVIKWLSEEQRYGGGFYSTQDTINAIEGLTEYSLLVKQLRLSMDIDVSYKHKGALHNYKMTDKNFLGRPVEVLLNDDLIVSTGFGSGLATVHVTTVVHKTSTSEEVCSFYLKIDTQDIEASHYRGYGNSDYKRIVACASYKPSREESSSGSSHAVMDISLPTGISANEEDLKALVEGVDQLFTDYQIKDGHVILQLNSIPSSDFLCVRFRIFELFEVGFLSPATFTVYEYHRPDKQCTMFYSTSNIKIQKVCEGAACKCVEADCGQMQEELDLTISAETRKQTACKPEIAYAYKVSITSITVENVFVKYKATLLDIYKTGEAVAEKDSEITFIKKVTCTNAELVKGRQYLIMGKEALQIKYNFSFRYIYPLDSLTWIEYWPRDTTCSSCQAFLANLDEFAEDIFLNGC
T1 sequence (P01031 19-1676): as above

The term Kd denotes the equilibrium constant for the complex coming apart. A word on the IC50: it is the midpoint of a concentration-inhibition curve. For `COc1ccc(NC(=O)NCc2ccc3c(ccn3CC(=O)N(C)C)c2)cc1OCCCC(C)C` [Compound C5INH-0447], the dissociation constant (Kd) on Human C5 was 0.204 µM. Further, at purified human C5 (setting [1]), the IC50 was found to be 0.536 µM.
On the same counts, the results for `COc1ccc(NC(=O)NCc2cccc3cccnc23)cc1OCCCC(C)C` [Compound C5INH-0450] are 0.885 µM and 0.298 µM.
On the same counts, the results for `COc1ccc(NC(=O)NCc2ccnc(NCCN3CCOCC3)c2OC)cc1OCCCC(C)C` [Compound C5INH-0452] are 0.059 µM and 0.0955 µM.
On the same counts, the results for `COc1ccc(NC(=O)NCc2ccnc(NCCN(C)C)c2OC)cc1OCCCC(C)C` [Compound C5INH-0453] are 0.025 µM and 0.0655 µM.
Consider `COc1ccc(NC(=O)NCc2ccnc(N)c2OC)cc1OCCCC(C)C` [Compound C5INH-0454], for which, on Human C5, the Kd turned out to be 0.284 µM. Further, the IC50 at purified human C5 (setting [1]) came to 0.301 µM.
Take `COc1ccc(NC(=O)NCc2cccc(OC)c2O)cc1OCCCC(C)C` [Compound C5INH-0456]: at Human C5, the Kd was 0.029 µM. Moreover, the IC50 on purified human C5 (setting [2]) worked out at 0.007 µM.
In the case of `COc1ccc(NC(=O)NCc2ccc3c(N)n[nH]c3c2)cc1OCCCC(C)C` [Compound C5INH-0458], the Kd on Human C5 worked out at 0.225 µM. Besides, at purified human C5 (setting [1]), the IC50 stood at 0.416 µM.
For `COc1ccc(NC(=O)NCc2ccc(Cn3ccnc3)cc2)cc1OCCCC(C)C` [Compound C5INH-0460], in that order: 0.578 µM and 0.725 µM.
On the same counts, the results for `COc1ccc(NC(=O)NCc2cccc(OCCN(C)C)c2)cc1OCCCC(C)C` [Compound C5INH-0462] are 0.095 µM and 0.113 µM.
On the same counts, the results for `COc1ccc(NC(=O)NC(CO)c2cccc3c2ccn3C)cc1OCCCC(C)C` (centres unmarked) [Compound C5INH-0463] are 0.28 µM and 0.808 µM.
`COc1ccc(NC(=O)NCc2cccc(F)c2O)cc1OCCCC(C)C` [Compound C5INH-0472]: the Kd on Human C5 stood at 0.082 µM. Besides, the IC50 on purified human C5 (setting [2]) is under 0.02 µM; on purified human C5 (setting [1]), 0.016 µM.
`COc1ccc(NC(=O)NCc2cc(F)ccc2O)cc1OCCCC(C)C` [Compound C5INH-0473]: the Kd at Human C5 is 0.069 µM. Further, on purified human C5 (setting [1]), the IC50 is 0.0215 µM.
For `COc1ccc(NC(=O)NCc2ccnc3c2ccn3CC2=NCCCN2)cc1OCCCC(C)C` [Compound C5INH-0474], in that order: 0.201 µM and 0.12 µM.
As to `COc1ccc(NC(=O)NCc2cccc(O)c2O)cc1OCCCC(C)C` [Compound C5INH-0476], at Human C5, the dissociation constant (Kd) is 0.04 µM. The IC50 on purified human C5 (setting [2]) is under 0.02 µM; on purified human C5 (setting [1]) it was 0.0085 µM.
For the compound `COc1ccc(NC(=O)NC(CO)c2ccccc2)cc1COCCC(C)C` (centres unmarked) [Compound C5INH-0477], the Kd at Human C5 was 1.13 µM. For the same compound, the IC50 at purified human C5 (setting [1]) came out at 1.46 µM.
As to `COc1ccc(F)cc1CNC(=O)Nc1ccc(OC)c(OCCCC(C)C)c1` [Compound C5INH-0484], the Kd on Human C5 came out at 0.77 µM. The IC50 at purified human C5 (setting [1]) worked out at 0.15 µM.
For `COc1ccc(CNC(=O)Nc2ccc(OC)c(OCCCC(C)C)c2)c(O)c1` [Compound C5INH-0485], in that order: 0.33 µM and 0.0469 µM.
`COc1ccc(NC(=O)NC(CO)c2cccc(OC)c2O)cc1OCCCC(C)C` (centres unmarked) [Compound C5INH-0486]: the dissociation constant Kd on Human C5 came out at 0.025 µM. In addition, the IC50 at purified human C5 (setting [2]) was 0.003 µM.
For `COc1ccc(NC(=O)NC(CO)c2cc(N)ccc2OC)cc1OCCCC(C)C` (centres unmarked) [Compound C5INH-0488], the Kd at Human C5 was determined as 0.1 µM. In addition, the IC50 was under 0.02 µM at purified human C5 (setting [2]) and 0.012 µM at purified human C5 (setting [1]).
For `COc1ccc(NC(=O)NC(CO)c2cc(NC(C)=O)ccc2OC)cc1OCCCC(C)C` (centres unmarked) [Compound C5INH-0489], the Kd on Human C5 was found to be 0.364 µM. For the same compound, at purified human C5 (setting [1]), the IC50 turned out to be 0.177 µM.
On the same counts, the results for `COc1ccc(NC(=O)NCc2ccnc3c2ccn3CCCN2CCCC2)cc1OCCCC(C)C` [Compound C5INH-0490] are 0.278 µM and 0.144 µM.
On the same counts, the results for `COc1ccc(NC(=O)NCc2ccnc3c2ccn3CCCN(C)C)cc1OCCCC(C)C` [Compound C5INH-0491] are 0.062 µM and 0.0835 µM.
